Holding throughout (format): binding
In test [1] the target is T1, rOv-FAR-1 (Onchocerca volvulus, UniProt Q25619).
T1 construct: recombinant from E. coli, produced by procedures similar to rBm-FAR-2 (His tag, IMAC, signal peptide removed)
Nature of the test: fluorescence emission enhancement and blue shift. The conditions noted are these: PBS pH 7.2; DAUDA ~1 uM; excitation 345 nm; fluorophore-tagged fatty acid.

For test [2], the target named is T2, rBm-FAR-1 (Brugia malayi, UniProt A0A0K0J905).
T2 construct: gene bma-far-1; signal peptide removed; C-terminal 6His tag; secreted from Pichia (PichiaPink strain 4, pPinkalpha-HC, codon optimised); IMAC; ~19 kDa
The test can be described thus: fluorescence emission enhancement and blue shift. The conditions noted are these: PBS pH 7.2; DAUDA ~1 uM; excitation 345 nm; fluorophore-tagged fatty acid.

Test [3] concerns the target T3, rOv-FAR-2 (Onchocerca volvulus, UniProt C7DRP3).
T3 construct: recombinant from E. coli, produced by procedures similar to rBm-FAR-2 (His tag, IMAC, signal peptide removed)
Nature of the test: fluorescence emission enhancement. The conditions noted are these: PBS pH 7.2.

Test [4] concerns the target T2, rBm-FAR-1. The test can be described thus: fluorescence emission enhancement. The conditions noted are these: PBS pH 7.2.
In test [5] the target is T1, rOv-FAR-1. The test can be described thus: fluorescence emission enhancement. The conditions noted are these: PBS pH 7.2.
Setting [6] is: retinol ~4 uM, excitation 350 nm.

SMILES strings stand for the structures.

T1 sequence (Q25619 17-178): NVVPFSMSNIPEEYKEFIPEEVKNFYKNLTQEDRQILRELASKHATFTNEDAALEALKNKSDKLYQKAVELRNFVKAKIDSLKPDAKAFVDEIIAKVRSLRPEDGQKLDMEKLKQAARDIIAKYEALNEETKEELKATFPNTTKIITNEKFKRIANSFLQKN
T2 sequence (A0A0K0J905 entry or part of it): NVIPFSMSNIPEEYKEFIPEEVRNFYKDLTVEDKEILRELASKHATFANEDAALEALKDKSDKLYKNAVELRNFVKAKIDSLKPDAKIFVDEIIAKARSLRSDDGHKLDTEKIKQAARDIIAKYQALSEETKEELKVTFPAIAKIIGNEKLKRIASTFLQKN
T3 sequence (C7DRP3 entry or part of it): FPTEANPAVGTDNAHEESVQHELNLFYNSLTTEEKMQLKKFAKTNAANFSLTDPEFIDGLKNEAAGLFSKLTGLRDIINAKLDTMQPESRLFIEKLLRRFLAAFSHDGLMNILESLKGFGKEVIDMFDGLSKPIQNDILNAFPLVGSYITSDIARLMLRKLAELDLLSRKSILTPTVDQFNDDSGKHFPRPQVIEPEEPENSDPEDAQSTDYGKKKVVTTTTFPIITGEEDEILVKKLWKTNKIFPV

`CN(C)c1cccc2c(S(=O)(=O)NCCCCCCCCCCC(=O)O)cccc12` [DAUDA, 11-((5-dimethylaminonaphthalene-1-sulfonyl)amino)undecanoic]: the “fluorescence emission enhancement and blue shift” value was “FAR-1s bind DAUDA, yielding similarly substantial increases and blue shift” in test [1]; “rBm-FAR-1 produced a large increase in DAUDA emission and a substantial blue-shift” in test [2].
Regarding `CC1=C(/C=C/C(C)=C/C=C/C(C)=C/CO)C(C)(C)CCC1` [all-trans retinol], the fluorescence emission enhancement result in test [3] (setting [6]) is “the proteins from both parasites bind retinol”; in test [4] (setting [6]), “Addition of retinol to either rBm-FAR-1 or rBm-FAR-2 resulted in substantial increases in fluorescence emission”; in test [5] (setting [6]), “the proteins from both parasites bind retinol”.
On to `CC\C=C/C=C/C=C/C=C\CCCCCCCC(=O)O` [cis-parinaric acid], for which the fluorescence emission enhancement entry in test [3] (cPnA ~4 uM, excitation 319 nm) was “both FAR-1s and FAR-2s bind a natural, intrinsically fluorescent, fatty acid acid (cPnA)”; in test [4] (cPnA ~4 uM, excitation 319 nm), “Both rBm-FAR-1 and rBm-FAR-2 bound cPnA”; in test [5] (cPnA ~4 uM, excitation 319 nm) it was “both FAR-1s and FAR-2s bind a natural, intrinsically fluorescent, fatty acid acid (cPnA)”.

These data come from PMC6193737, “Ligand binding properties of two Brugia malayi fatty acid and retinol (FAR) binding proteins and their vaccine efficacies against challenge infection in gerbils” (PLoS Neglected Tropical Diseases, 2018).
